Where a name gives a salt, the structure may show the parent alone. Read-outs that look alike come from different tables or passages of the source.
Experiments:
human alpha2A receptors [1] = target: T1, human alpha2A receptors (Homo sapiens, UniProt P08913); settings: for IC50: read-out: Alpha 2A Adrenaline IC50, antagonism, cells stimulated with adrenaline, CHO cells stably transfected with human alpha2A, cotransfected with Gα16, intracellular calcium; for Kb: read-out: Alpha 2A Adrenaline Kb, Kb calculated from IC50 with the Cheng-Prusoff equation, adrenaline as agonist, CHO cells, human alpha2A
T1 sequence (P08913 1-465): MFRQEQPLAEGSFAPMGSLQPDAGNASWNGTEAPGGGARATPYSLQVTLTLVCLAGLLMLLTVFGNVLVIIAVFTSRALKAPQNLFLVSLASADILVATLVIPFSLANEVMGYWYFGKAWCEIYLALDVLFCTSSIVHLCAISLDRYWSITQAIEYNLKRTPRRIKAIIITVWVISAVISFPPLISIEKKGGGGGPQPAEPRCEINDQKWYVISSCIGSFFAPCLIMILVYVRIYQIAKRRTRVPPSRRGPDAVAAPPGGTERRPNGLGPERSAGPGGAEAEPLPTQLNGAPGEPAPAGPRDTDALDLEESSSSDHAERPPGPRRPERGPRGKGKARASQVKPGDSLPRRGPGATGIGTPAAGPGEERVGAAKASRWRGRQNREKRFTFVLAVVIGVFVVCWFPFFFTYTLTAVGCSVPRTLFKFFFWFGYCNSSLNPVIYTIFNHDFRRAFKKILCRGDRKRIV

human alpha2C receptors = target: T2, human alpha2C receptors (Homo sapiens, UniProt P18825); assay: Determination of alpha2C antagonistic activity in vitro (FLIPR calcium assay); settings: for Kb: Kb calculated from IC50 with the Cheng-Prusoff equation, adrenaline as agonist, CHO cells, human alpha2C
T2 sequence (P18825 1-462): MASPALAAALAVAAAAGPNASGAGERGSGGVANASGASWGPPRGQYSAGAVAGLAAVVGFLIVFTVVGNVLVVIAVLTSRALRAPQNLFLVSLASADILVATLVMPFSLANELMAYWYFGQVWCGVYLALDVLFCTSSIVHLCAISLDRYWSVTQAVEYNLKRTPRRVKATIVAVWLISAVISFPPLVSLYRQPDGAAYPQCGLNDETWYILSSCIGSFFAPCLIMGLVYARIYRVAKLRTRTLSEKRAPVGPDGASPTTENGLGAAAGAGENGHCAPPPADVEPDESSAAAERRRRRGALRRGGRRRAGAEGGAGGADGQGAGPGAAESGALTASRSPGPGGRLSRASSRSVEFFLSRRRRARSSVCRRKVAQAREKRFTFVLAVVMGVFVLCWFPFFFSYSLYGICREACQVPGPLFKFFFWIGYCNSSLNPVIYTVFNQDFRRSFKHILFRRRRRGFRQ
Procedure: Experiment 1: Determination of alpha2A and alpha2C Antagonistic Activity In Vitro
The growth medium was removed and the cells were incubated with the test compounds and the FLIPR Calcium 6 Assay reagent (Molecular Devices, CA, USA) for 2 h at 37° C. in dark. The test compounds (concentrations in cells 100 pM-10 μM) were dissolved in Probenecid-Ringer consisting of 150 mM NaCl, 3 mM KCl, 1.2 mM MgCl2, 1 mM CaCl2, 5 mM glucose, 20 mM HEPES and 2.5 mM probenecid (pH 7.4 adjusted with 1.0 M NaOH). […] All experiments were performed at 37° C. For agonism measurements the test compounds dissolved in Probenecid-Ringer were applied by FLIPR Tetra at 15 s time point. In order to determine antagonism, the cells were stimulated either with 100 nM adrenaline or noradrenaline and the test compounds were added to the cells 2 h before the experiment with the FLIPR Calcium 6 Assay reagent. […] Typically, there were four replicates at each concentration and six different dose levels. […] The minimum fluorescence value subtracted from the maximum value for each well was used in the calculations. ScreenWorks version 4.0 software was used for analyzing the results. Fitting of the antagonist dose-response results was performed with the free Hill equation and the IC50 values were fitted with IDBS XE software using model 200: y=(A+(B/(1+((x/C)̂D)))), where A is the curve maximum, B the curve minimum and C equals the EC50 value. D is slope factor (Hill). Kb was calculated with the Cheng-Prusoff equation Kb=A/((B/C)+1), where A is the IC50 of antagonist, B the concentration of agonist and C the EC50 of the agonist.

human alpha2A receptors [2] = target: T1, human alpha2A receptors; assay: cell-based
[3] = read-out: Alpha 2C Adrenaline IC50, antagonism, cells stimulated with adrenaline, CHO cells stably transfected with human alpha2C, cotransfected with Gα16, intracellular calcium
[4] = read-out: Alpha 2C Adrenaline Kb

Compound	IC50 (human alpha2A receptors [1]) [nM]	Kb (human alpha2A receptors [1]) [nM]	IC50 (human alpha2C receptors; [3]) [nM]	Kb (human alpha2C receptors; [4]) [nM]	IC50 (human alpha2A receptors [2]) [nM]	Kb (human alpha2A receptors [2]) [nM]	IC50 (human alpha2C receptors) [nM]	Kb (human alpha2C receptors; Alpha 2C Adrenaline Kb) [nM]
(R)-1-((S)-1-(((S)-2,3-Dihydrobenzo[b][1,4]dioxin-2-yl)methyl)piperidin-3-yl)-3-methyl-3-phenylpyrrolidine-2,5-dione and (S)-1-((S)-1-(((S)-2,3-dihydrobenzo[b][1,4]dioxin-2-yl)methyl)piperidin-3-yl)-3-methyl-3-phenylpyrrolidine-2,5-dione [example 36]	1560	70	0.908	0.091				
O=C1NCCCN1[C@H]1CCCN(C[C@H]2COc3ccccc3O2)C1 [compound 53, 1-((S)-1-(((S)-2,3-Dihydrobenzo[b][1,4]dioxin-2-yl)methyl)piperidin-3-yl)tetrahydropyrimidin-2(1H)-one]	> 10000	> 449	1.04	0.105				
CC(C)(C)C1CN([C@H]2CCCN(C[C@H]3COc4ccccc4O3)C2)C(=O)O1 (stereo partly drawn) [example 18, 5-tert-Butyl-3-((S)-1-(((S)-2,3-dihydrobenzo[b][1,4]dioxin-2-yl)methyl)piperidin-3-yl)oxazolidin-2-one]					8510	382	0.235	0.024
O=C1CC(c2ccccc2)CN1[C@H]1CCCN(C[C@H]2COc3ccccc3O2)C1 (stereo partly drawn) [example 32, 1-((S)-1-(((S)-2,3-Dihydrobenzo[b][1,4]dioxin-2-yl)methyl)piperidin-3-yl)-4-phenylpyrrolidin-2-one]					5210	234	< 0.01	< 0.001
CC(C)N1C(=O)N([C@H]2CCCN(C[C@H]3COc4ccccc4O3)C2)C(=O)C1(C)C [example 116, 3-((S)-1-(((S)-2,3-Dihydrobenzo[b][1,4]dioxin-2-yl)methyl)-piperidin-3-yl)-1-isopropyl-5,5-dimethylimidazolidine-2,4-dione]					> 10000	> 449	1	0.1
O=C1NC2(CC2)C(=O)N1[C@H]1CCCN(C[C@H]2COc3ccccc3O2)C1 [example 122, 6-((S)-1-(((S)-2,3-Dihydrobenzo[b][1,4]dioxin-2-yl)methyl)-piperidin-3-yl)-4,6-diazaspiro[2.4]heptane-5,7-dione]					1380	62	0.11	0.01
O=S1(=O)Cc2ccccc2N1[C@H]1CCCN(C[C@H]2COc3ccccc3O2)C1 [example 25, 1-((S)-1-(((S)-2,3-Dihydrobenzo[b][1,4]dioxin-2-yl)methyl)piperidin-3-yl)-1,3-dihydrobenzo[c]isothiazole 2,2-dioxide]					535	24	19.4	1.95
O=C1[C@H]2CCCC[C@H]2C(=O)N1[C@H]1CCCN(C[C@H]2COc3ccccc3O2)C1 [example 93, (3aR,7aS)-2-((S)-1-(((S)-2,3-Dihydrobenzo[b][1,4]dioxin-2-yl)methyl)piperidin-3-yl)hexahydro-1H-isoindole-1,3(2H)-dione hydrochloride]					> 10000	> 449	0.091	0.009
C[C@H](c1ccccc1)N1C(=O)C(=O)N([C@H]2CCCN(C[C@H]3COc4ccccc4O3)C2)C1=O [example 128, 1-((S)-1-(((S)-2,3-Dihydrobenzo[b][1,4]dioxin-2-yl)methyl)-piperidin-3-yl)-3-((R)-1-phenylethyl)imidazolidine-2,4,5-trione]					8890	399	1.19	0.119
CC1CCN([C@H]2CCCN(C[C@H]3COc4ccccc4O3)C2)C1=O (single isomer, unassigned; diastereomer 2) [example 99]	> 10000	> 449					0.15	0.02
CC(=O)NCC1CN([C@H]2CCCN(C[C@H]3COc4ccccc4O3)C2)C(=O)O1 (stereo partly drawn) [example 20, N-((3-((S)-1-(((S)-2,3-Dihydrobenzo[b][1,4]dioxin-2-yl)methyl)piperidin-3-yl)-2-oxooxazolidin-5-yl)methyl)acetamide]					> 10000	> 449	6.91	0.696
COc1ccc2c(c1OC)C(=O)N([C@H]1CCCN(C[C@H]3COc4ccccc4O3)C1)C2=O [example 66, 2-((S)-1-(((S)-2,3-Dihydrobenzo[b][1,4]dioxin-2-yl)methyl)piperidin-3-yl)-4,5-dimethoxyisoindoline-1,3-dione hydrochloride]					> 10000	> 449	< 0.01	< 0.001
O=c1[nH]c2cc(F)ccc2n1[C@H]1CCCN(C[C@H]2COc3ccccc3O2)C1 [example 88, 1-((S)-1-(((S)-2,3-Dihydrobenzo[b][1,4]dioxin-2-yl)methyl)piperidin-3-yl)-5-fluoro-1H-benzo[d]imidazol-2(3H)-one]					> 10000	> 449	< 0.1	< 0.01
O=c1[nH]c2ccccc2c(=O)n1[C@H]1CCCN(C[C@H]2COc3ccccc3O2)C1 [example 72, 3-((S)-1-(((S)-2,3-Dihydrobenzo[b][1,4]dioxin-2-yl)methyl)-piperidin-3-yl)quinazoline-2,4(1H,3H)-dione]					> 10000	> 449	0.124	0.012
CC1(c2ccccc2)CC(=O)N([C@H]2CCCN(C[C@H]3COc4ccccc4O3)C2)C1=O (stereo partly drawn) [example 35, 1-((S)-1-(((S)-2,3-Dihydrobenzo[b][1,4]dioxin-2-yl)methyl)piperidin-3-yl)-3-methyl-3-phenylpyrrolidine-2,5-dione]					193	9	< 0.01	
CC(C)N1C(=O)C(=O)N([C@H]2CCCN(C[C@H]3COc4ccccc4O3)C2)C1=O [example 130, 1-((S)-1-(((S)-2,3-Dihydrobenzo[b][1,4]dioxin-2-yl)methyl)-piperidin-3-yl)-3-isopropylimidazolidine-2,4,5-trione]					6590	296	0.256	0.028
O=C1c2scnc2CN1[C@H]1CCCN(C[C@H]2COc3ccccc3O2)C1 [example 79, 5-((S)-1-(((S)-2,3-Dihydrobenzo[b][1,4]dioxin-2-yl)methyl)piperidin-3-yl)-4H-pyrrolo[3,4-d]thiazol-6(5H)-one]					> 10000	> 449	5.4	0.544
